Data on three compounds can be found in US20220226342A1, “COMPOSITIONS AND METHODS OF TREATING LIVER CANCERS” (The Johns Hopkins University, priority 2019, published 2022).

Structures are written as SMILES.

For assay [1], the system named is 40 HCC PDO lines. Put plainly: 10 μM drug screening, cell viability at 96 h (CellTiter-Glo). Type of assay: cell-based, human. The note with it: one HCC PDO line, 96 h. As to the method: FIG. 2A-2E. 10 μM drug screening and IC50 calculation across 40 PDOs from 20 HCC patients. (2A). 10 μM drug screening of omacetaxine and sorafenib, regorafenib, lenvatinib and cabozantinib on 40 PDOs derived from 20 HCC patients. X axis—the 40 PDO lines, Y axis—Cell viability. (2B). IC50 curve of 40 PDO lines, x-axis—omacetaxine dose, Y axis—Relative cell viability. (2C). […] (2D). IC50 distribution of 40 HCC PDOs. X axis—PDO lines, Y axis—IC50 number of omacetaxine for each PDO.
As readout of drug effectiveness, cell viability at 96 hours (h) was measured. White light microscopy images of one of the HCC PDO lines across 129 drugs was prepared. In FIG. 2E, each panel represents the image collected at 96 hours after treatment with each drug, at a concentration of 10 μM. […] To quantify survival, we implemented CellTiter-Glo, a luminescent cell viability assay. A total of 129 readings (one for each drug) was obtained for each of the 40 PDO lines, for a total of […] data points. […] Next, the inventors contrasted the survival of the […] HCC PDO lines when treated with omacetaxine versus current FDA approved drugs for HCC.
(Cellular ATP, detected with luciferase, serves as a proxy for viable cell number.)

Assay [2] deals with HCC patients. The note with it: clinical trial; cited from earlier work.
For assay [3], the system named is HCC patients. The note with it: cited from earlier work.

Consider `CC(C)C[C@H](NC(=O)[C@H](Cc1ccccc1)NC(=O)c1cnccn1)B(O)O` [bortezomib], for which the “white light microscopy image of organoids” value in assay [1] is on record as “induce cell destruction”.
With `COc1cc2nccc(Oc3ccc(NC(=O)NC4CC4)c(Cl)c3)c2cc1C(N)=O` [lenvatinib], in assay [2], the “efficacy compared to sorafenib” value is given as “non-inferior efficacy”.
As to `CNC(=O)c1cc(Oc2ccc(NC(=O)Nc3ccc(Cl)c(C(F)(F)F)c3)cc2)ccn1` [sorafenib], in assay [1], the “white light microscopy image of organoids” value was “allow unrestricted organoid growth”. The “median increase in life span” value in assay [3] (HCC patients) is 9.2 months. The “median survival of HCC patients” value in assay [3] (SHARP trial, extended from 7.9) is 10.7 months.
